Experimental data from publication PMC8111401 (Frontiers in Pharmacology, 2021).
Read-outs that look alike come from different tables or passages of the source.

Experiments:
[1] = tested on: radiation pneumonitis; parameters: method as in Gao et al., 2013; conditions: delivered as late as 35 days after radiation; ref Gao et al., 2013; cited from earlier work
[2] = in vivo; conditions: female, WAG/RijCmcr, rat, plasma, po
[3] = Lisinopril excreted in 24 h urine, measured by LC-MS/MS; type: in vivo, WAG/RijCmcr rats
Procedure: Urine was collected in a Nalgene rat metabolic cage. A rat was placed in the metabolic cage with access to food and water for 24 h. After 24 h urine volume was recorded, and an aliquot was frozen and stored at −80°C for LC-MS analyses.
Plasma was measured 1–4 times in each animal, at 0, 0.5, 1, 1.5, 2, 2.5, 3, 4, 5, 6, 8, 24 or 48 h after oral gavage, and 5 min, 1.5 and 24 h after intravenous injection.
Aliquots (0.1 ml) of rat plasma or urine were extracted with ∼3 volumes of cold acidified methanol spiked with enalaprilat as an internal standard (0.3 ml of methanol, 20 µL of 0.1 M HCl and 3 µL of 0.1 mM enalaprilat), mixed well and allowed to stand for 5 min before centrifugation at 14,000 rpm for 5 min at 4°C. The supernatant was passed through a Phree phospholipid removal plate (Phenomenex) and the eluate dried completely under a flux of air and reconstituted with 120 µL of LC-MS mobile phase (5% acetonitrile, 95% water, 0.1% formic acid), spiked with 1 µM of lisinopril-d5 used as a second internal standard. […] Samples were injected into C18 reversed phase column (Waters Cortecs UPLC C18 2.1 mm × 50 mm, 1.6 µm) thermostated at 40°C and equilibrated with 0.1% formic acid in water:acetonitrile (95:5). Compounds were eluted by increasing the concentration of acetonitrile in the mobile phase from 5 to 40% over 2.5 min at the flow rate of 0.5 ml/min.

[4] = control (nonirradiated) rats; base parameter estimate, two-compartment model
From the text: (§1) WAG/RijCmcr female rats were irradiated without the use of anesthetics at 11–12 weeks of age weighing ∼155 g. All irradiations were done between 8–11 am. For leg-out PBI, non-anesthetized rats were immobilized in a plastic jig and irradiated using a XRAD-320 orthovoltage x-ray system (Precision X-Ray, North Branford, Connecticut). […] During the irradiation, each rat was confined in a chamber which allows irradiation of two rats simultaneously. One hind limb of each rat was carefully externalized from the chamber and shielded with a 0.25-inch lead block. The dose to this leg was 2 Gy. The dual-chambered jig was placed on a plane perpendicular to the beam direction, with distance from source to the midline of rats set at 61 cm. […] The irradiation field at midline was large enough to cover both chambers with adequate (at least 2 cm) margins. Supportive care was provided to rats receiving 13 Gy. Supportive care consisted of delivery of the antibiotic Enrofloxacin (10 mg/kg/day) from days 1–14 in the drinking water, and hydration by daily subcutaneous injection of saline (40 ml/kg/day) from days 3–7, post-irradiation.
(§2) Aliquots (0.1 ml) of rat plasma or urine were extracted with ∼3 volumes of cold acidified methanol spiked with enalaprilat as an internal standard (0.3 ml of methanol, 20 µL of 0.1 M HCl and 3 µL of 0.1 mM enalaprilat), mixed well and allowed to stand for 5 min before centrifugation at 14,000 rpm for 5 min at 4°C. […] Samples were injected into C18 reversed phase column (Waters Cortecs UPLC C18 2.1 mm × 50 mm, 1.6 µm) thermostated at 40°C and equilibrated with 0.1% formic acid in water:acetonitrile (95:5).
(§3) Pharmacokinetic (PK) modeling was performed on the data to measure distribution of the drug in different tissues (compartments). The two compartments fitted with observed data were the central compartment (plasma) and the peripheral compartment (internal tissues such as lungs, liver, kidneys, etc.). Administration by gavage was modeled using the gut as a depot to include bioavailability (F) and absorption (k a) from the gut (Figure 1). […] Clearance out of the system was modeled by Cl, the renal clearance rate via urine (Figure 1). The model was fitted using the open-source R package Nonlinear Mixed-Effects Model Development and Simulation (nlmixr) along with related R packages.
(§4) An additive error with compartment-specific variance was assumed for the plasma, peripheral, and urine compartments. Multiple measurements from the same animal were linked via a log-normally distributed multiplicative random effect on the compartment volumes V 2 and V 3.
(§5) The observed measurements are the concentration in plasma, Cplasma and the (cumulative) amount in the urine, Yurine .
(§6) The model was fitted to the plasma and urine data, the accumulation in the peripheral compartment was inferred from the model.

[5] = in vivo; conditions: female, WAG/RijCmcr, rat, plasma, urine
From the text: as §1, §2, §3, §4, §5, §6

[6] = parameters: method as in Beermann 1988; conditions: humans; ref Beermann 1988; cited from earlier work

CCOC(=O)[C@H](CCc1ccccc1)N[C@@H](C)C(=O)N1CCC[C@H]1C(=O)O [enalapril]
Efficacy to mitigate radiation pneumonitis [1]: had efficacy to mitigate radiation pneumonitis

NCCCC[C@H](N[C@@H](CCc1ccccc1)C(=O)O)C(=O)N1CCC[C@H]1C(=O)O [lisinopril]
Tmax [2]: 2 to 3 h
Inter-individual variation (irradiated rats, 90 min after IV injection): 1.8 fold
Inter-individual variation (irradiated rats, 90 min after oral gavage (data not shown)): 2.7 fold
Inter-individual variation (non-irradiated rats, 90 min after oral gavage (data not shown)): 1.6 fold
Inter-individual variation (nonirradiated rats injected with lisinopril (result not shown)): 3-4 fold
Measured lisinopril excreted in urine per 300 µg administered, geometric mean ([3]; IV, no radiation): 0.46 µmol
Measured lisinopril excreted in urine per 300 µg administered, geometric mean ([3]; IV, radiation): 0.37 µmol
Measured lisinopril excreted in urine per 300 µg administered, geometric mean ([3]; gavage, no radiation): 0.072 µmol
Measured lisinopril excreted in urine per 300 µg administered, geometric mean ([3]; gavage, radiation): 0.11 µmol
Central volume [4]: 0.008 L
Peripheral volume (lung) [4]: 0.513 L
CL renal [5]: 0.15 mL/min
half-life ([5]; Model-based circulating half-life, irradiated rats): 2.5 h
half-life ([5]; Model-based circulating half-life, non-irradiated rats): 2.8 h
half-life ([5]; Model-based estimate of terminal half-life, irradiated rats): 83 h
half-life ([5]; Model-based estimate of terminal half-life, nonirradiated rats): 65 h
bioavailability ([5]; oral): 25.4%
bioavailability ([5]; po): 19.2%
Half-life of prolonged terminal phase [6]: 46.7 h
Time of peak serum levels [6]: 6 to 8 h
